# Test results: publication PMC9599461, “Stereoselectivity in the Membrane Transport of Phenylethylamine Derivatives by Human Monoamine Transporters and Organic Cation Transporters 1, 2, and 3” (Biomolecules, 2022)
# Values joined by “and” are separate entries in the source; they are usually repeats but may differ in a detail not shown here. Equal entries are not always repeated.
# T1: OCT1 (Homo sapiens, UniProt O15245)
# T1 sequence (O15245 1-554): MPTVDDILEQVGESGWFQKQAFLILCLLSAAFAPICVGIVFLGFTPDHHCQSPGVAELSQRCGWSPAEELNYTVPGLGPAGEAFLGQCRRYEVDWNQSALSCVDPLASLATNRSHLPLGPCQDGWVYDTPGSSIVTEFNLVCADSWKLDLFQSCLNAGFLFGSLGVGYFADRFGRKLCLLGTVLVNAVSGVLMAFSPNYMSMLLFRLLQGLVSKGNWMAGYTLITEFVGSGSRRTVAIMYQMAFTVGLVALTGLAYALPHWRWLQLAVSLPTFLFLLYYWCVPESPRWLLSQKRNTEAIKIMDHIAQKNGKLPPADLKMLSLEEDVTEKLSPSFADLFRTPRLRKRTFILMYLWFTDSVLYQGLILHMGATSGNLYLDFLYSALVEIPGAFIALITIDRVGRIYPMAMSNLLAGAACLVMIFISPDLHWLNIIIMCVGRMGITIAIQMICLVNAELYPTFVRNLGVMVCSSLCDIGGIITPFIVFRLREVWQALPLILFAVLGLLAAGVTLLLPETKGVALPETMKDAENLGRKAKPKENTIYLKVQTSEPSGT
# T2: OCT2 (Homo sapiens, UniProt O15244)
# T2 sequence (O15244 1-555 S270A): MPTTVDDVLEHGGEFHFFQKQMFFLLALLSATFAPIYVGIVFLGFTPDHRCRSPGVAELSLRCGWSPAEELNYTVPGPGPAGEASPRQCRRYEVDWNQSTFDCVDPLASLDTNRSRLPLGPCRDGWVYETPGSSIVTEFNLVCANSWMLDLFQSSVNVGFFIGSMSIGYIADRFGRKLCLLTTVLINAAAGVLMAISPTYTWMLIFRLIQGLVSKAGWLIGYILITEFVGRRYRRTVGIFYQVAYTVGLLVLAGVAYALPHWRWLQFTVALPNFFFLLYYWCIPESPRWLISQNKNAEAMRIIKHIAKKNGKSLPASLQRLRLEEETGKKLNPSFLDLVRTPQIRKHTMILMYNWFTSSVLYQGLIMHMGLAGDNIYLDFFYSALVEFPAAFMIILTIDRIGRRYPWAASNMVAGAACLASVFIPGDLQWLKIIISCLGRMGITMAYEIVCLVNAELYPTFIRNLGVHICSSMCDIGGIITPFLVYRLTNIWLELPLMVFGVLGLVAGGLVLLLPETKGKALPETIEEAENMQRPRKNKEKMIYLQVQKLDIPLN
# T3: OCT3 (Homo sapiens, UniProt O75751)
# T3 sequence (O75751 1-556): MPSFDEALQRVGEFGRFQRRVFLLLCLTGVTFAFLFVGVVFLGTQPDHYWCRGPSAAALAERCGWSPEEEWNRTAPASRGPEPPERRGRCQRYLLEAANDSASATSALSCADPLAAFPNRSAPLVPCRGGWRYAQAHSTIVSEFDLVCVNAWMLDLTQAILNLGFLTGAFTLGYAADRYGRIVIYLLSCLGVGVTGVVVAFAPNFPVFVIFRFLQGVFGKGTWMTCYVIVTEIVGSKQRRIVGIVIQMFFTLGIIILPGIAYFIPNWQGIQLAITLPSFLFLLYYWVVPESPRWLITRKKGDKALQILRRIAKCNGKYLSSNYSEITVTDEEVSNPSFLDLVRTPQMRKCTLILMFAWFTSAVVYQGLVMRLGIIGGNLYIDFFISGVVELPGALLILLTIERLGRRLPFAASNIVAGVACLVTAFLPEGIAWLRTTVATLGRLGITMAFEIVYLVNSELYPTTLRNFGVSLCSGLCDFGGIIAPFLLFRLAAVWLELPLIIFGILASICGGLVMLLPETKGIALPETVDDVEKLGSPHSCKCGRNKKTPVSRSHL
# T4: OCT2 (wild-type) (Homo sapiens, UniProt O15244)
# T4 sequence (O15244 1-555 S270A): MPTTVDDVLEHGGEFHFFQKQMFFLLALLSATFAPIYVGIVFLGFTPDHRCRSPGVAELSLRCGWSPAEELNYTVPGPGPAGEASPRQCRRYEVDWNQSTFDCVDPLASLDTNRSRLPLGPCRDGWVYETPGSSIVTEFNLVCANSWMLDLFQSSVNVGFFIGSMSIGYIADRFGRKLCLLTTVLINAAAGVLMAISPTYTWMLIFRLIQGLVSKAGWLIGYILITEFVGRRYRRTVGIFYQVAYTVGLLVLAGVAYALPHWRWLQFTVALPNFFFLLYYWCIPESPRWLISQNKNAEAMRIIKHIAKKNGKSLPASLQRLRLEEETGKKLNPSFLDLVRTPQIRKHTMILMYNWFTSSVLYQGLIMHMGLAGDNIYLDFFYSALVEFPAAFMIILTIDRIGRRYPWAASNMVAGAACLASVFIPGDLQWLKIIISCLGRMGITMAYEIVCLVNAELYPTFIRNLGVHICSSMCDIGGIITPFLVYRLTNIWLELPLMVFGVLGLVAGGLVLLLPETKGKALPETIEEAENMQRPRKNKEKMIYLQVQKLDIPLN
# T5: OCT2 (Homo sapiens, UniProt O15244, S270A)
# T5 sequence (O15244 1-555 S270A): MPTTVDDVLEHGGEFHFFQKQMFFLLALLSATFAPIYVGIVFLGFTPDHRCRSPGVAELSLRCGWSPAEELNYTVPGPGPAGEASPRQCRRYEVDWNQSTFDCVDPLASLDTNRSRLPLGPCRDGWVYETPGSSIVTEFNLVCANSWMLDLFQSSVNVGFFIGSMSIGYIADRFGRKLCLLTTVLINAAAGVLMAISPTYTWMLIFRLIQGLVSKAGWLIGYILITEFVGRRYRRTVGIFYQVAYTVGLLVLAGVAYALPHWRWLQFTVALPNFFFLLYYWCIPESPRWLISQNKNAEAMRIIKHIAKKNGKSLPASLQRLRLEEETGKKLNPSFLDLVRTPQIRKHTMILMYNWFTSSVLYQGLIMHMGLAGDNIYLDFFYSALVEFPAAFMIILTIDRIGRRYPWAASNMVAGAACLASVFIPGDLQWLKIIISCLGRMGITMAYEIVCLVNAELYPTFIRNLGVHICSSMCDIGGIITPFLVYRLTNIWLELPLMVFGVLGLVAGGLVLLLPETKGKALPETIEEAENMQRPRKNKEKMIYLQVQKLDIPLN
# What was measured:
# SERT [1] = molecular target: T6, SERT (Homo sapiens, UniProt P31645);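 note: uptake into HEK293 cells stably expressing human SERT over 2 min, enantiomers measured in cell lysate by chiral HPLC-MS/MS, normalized to total protein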
# SERT [2] = molecular target: T6, SERT; experiment: Stereoselective uptake into SERT-overexpressing HEK293 cells;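 note: uptake into HEK293 cells stably expressing human SERT over 2 min, enantiomers measured in cell lysate by chiral HPLC-MS/MS, normalized to total protein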
# NET = NET (Homo sapiens, UniProt P23975); experiment: Stereoselective uptake into NET-overexpressing HEK293 cells;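 note: intracellular enantiomers quantified in cell lysates by chiral HPLC-MS/MS after a 2 min substrate incubation, with uptake normalized to total cellular protein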
# Protocol: (§1) All transport experiments were carried out in HEK293 cells stably overexpressing human MATs or OCTs. […] All cells were regularly cultivated in DMEM supplemented with 10% (v/v) FCS, penicillin (100 U/mL) and streptomycin (100 μg/mL)and kept in culture for no longer than 30 passages.
# (§2) For the uptake experiments, 300,000 cells were plated in poly-D-lysine precoated 24-well plates 48 h ahead of the transport experiment. On the day of experiment, cells were initially washed once with 37 °C pre-warmed HBSS+ (Hanks buffered salt solution supplemented with 10 mM HEPES) and subsequently incubated with the substrates dissolved in pre-warmed HBSS+ for exactly two minutes. Incubation was stopped by adding ice-cold HBSS+ followed by two washing steps. After this, cells were lysed with 80% acetonitrile containing 10 ng/mL milnacipran as internal standard for high-performance liquid chromatography coupled to tandem mass spectrometry (HPLC-MS/MS) analysis. For every experiment, two additional wells per cell line were lysed using RIPA buffer for protein quantification. Total protein was quantified using the bicinchoninic acid assay [42]. This was later used for normalization of the uptake data.
# (§3) Intracellularly accumulated test substances were quantified by HPLC-MS/MS analysis using a Shimadzu Nexera HPLC system with a SIL-30AC autosampler, a CTO-20AC column oven, a LC-30AD pump, and a CBM-20A controller (Shimadzu, Kyoto, Japan). Stereoselective chromatography was carried out on a [sequence] CBH HPLC column (100 × 3 mm inner dimension with 5 μM particle size; Sigma-Aldrich, Darmstadt, Germany) with a corresponding 10 × 3 mm guard column. Reversed phased chromatography was carried out using an ammonium acetate (NH4Ac) buffered aqueous mobile phase with isopropyl alcohol (IPA) as organic solvent. […] The order of elution of the enantiomers was obtained from available reference literature [43] or by applying enantiopure reference compounds to the chiral HPLC. […] Given the structural similarity of the investigated substances and the fact that separation was performed on the same column with almost identical mobile phases, we assume that this order of elution for our compound set is always the (R)- before the (S)-enantiomer.
# (§4) Detection was performed with an API 4000 tandem mass spectrometer (AB SCIEX, Darmstadt, Germany) operating in multiple-reaction-monitoring mode. Quantification was performed using the Analyst 1.6.2 software (AB SCIEX, Darmstadt, Germany) and quantified by comparison to standard curves with known concentrations.
# (§5) All uptake data were normalized to protein content to account for variation in the number of seeded sells. Transporter-mediated net uptake was calculated by subtracting uptake into empty vector-transfected control cells from uptake into transporter-transfected cells. Kinetic parameters were then determined after non-linear regression following the Michaelis–Menten equation (v = vmax × [S]/(Km + [S])) using GraphPad Prism (Version 5.01 for Windows, GraphPad Software, La Jolla, CA, USA). Vmax refers to the maximum transport velocity and Km is defined as the substance concentration required to reach half of vmax. The intrinsic clearance Clint was calculated as the quotient of vmax over Km.
# OCT1 = molecular target: T1, OCT1; experiment: Stereoselective uptake into OCT1-overexpressing HEK293 cells; conditions: for selectivity ratio at 2 min: human;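 for all read-outs here: enantiomers quantified inside cells by chiral HPLC-MS/MS, uptake normalized to total protein from bicinchoninic acid assay, substrates applied in HBSS+ buffer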
# DAT = DAT (Homo sapiens, UniProt Q01959); experiment: Stereoselective uptake into DAT-overexpressing HEK293 cells;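 note: intracellular accumulation measured by chiral HPLC-MS/MS in stably transfected HEK293 cells, normalized to total protein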
# Protocol: as §1, §2, §3, §4, §5
# OCT2 [3] = molecular target: T2, OCT2; experiment: Stereoselective uptake into OCT2 (wild-type)-overexpressing HEK293 cells; conditions: OCT2; for selectivity ratio at 2 min: human, ratio between enantiomers
# SERT [4] = molecular target: T6, SERT; experiment: in vitro
# OCT3 = molecular target: T3, OCT3; experiment: Stereoselective uptake into OCT3-overexpressing HEK293 cells;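 note: intracellular accumulation in HEK293 cells measured by chiral HPLC-MS/MS after a 2 min substrate exposure at 37 °C, uptake normalized to total protein (bicinchoninic acid assay)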
# [5] = tested on: OCT2 wild-type versus A270S variant; experiment: in vitro; conditions: human, Transporter selectivity, OCT2 wild-type versus A270S, 100 μM racemic substance, two minutes; given as for WT
# Alpha-1 adrenoreceptor = conditions: cited from earlier work
# OCT2 (wild-type) = molecular target: T4, OCT2 (wild-type); experiment: Stereoselective uptake into OCT2 (wild-type)-overexpressing HEK293 cells; conditions: human, Stereoselectivity OCT2_WT, 100 μM racemic substance, two minutes; uptake ratio of enantiomers, given as for (R)
# OCT2 A270S variant = experiment: in vitro; conditions: human, Stereoselectivity OCT2_A270S, 100 μM racemic substance, two minutes; uptake ratio of enantiomers, given as for (R)
# OCT2 [6] = molecular target: T5, OCT2; experiment: Stereoselective uptake into OCT2 (wild-type)-overexpressing HEK293 cells; conditions: OCT2; ratio between enantiomers, given as for (R) or for 1
# [7] = substrate: CNC[C@@H](O)c1ccc(O)cc1; experiment: cells, lysate or membranes; conditions: other: HEK293 cells overexpressing human DAT; racemic substrate, two minutes; net uptake minus empty vector control; 37.0 °C;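 note: intracellular accumulation measured by chiral HPLC-MS/MS in stably transfected HEK293 cells, normalized to total protein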
# Protocol: as §1, §2, §3, §4, §5
# [8] = substrate: [H][C@](O)(CNC)c1ccc(O)cc1; experiment: cells, lysate or membranes; conditions: other: HEK293 cells overexpressing human DAT; racemic substrate, two minutes; net uptake minus empty vector control; 37.0 °C;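 note: intracellular accumulation measured by chiral HPLC-MS/MS in stably transfected HEK293 cells, normalized to total protein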
# Protocol: as §1, §2, §3, §4, §5
# [9] = substrate: NC[C@@H](O)c1ccc(O)cc1; experiment: cells, lysate or membranes; conditions: other: HEK293 cells overexpressing human DAT; racemic substrate, two minutes; net uptake minus empty vector control; 37.0 °C;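 note: intracellular accumulation measured by chiral HPLC-MS/MS in stably transfected HEK293 cells, normalized to total protein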
# Protocol: as §1, §2, §3, §4, §5
# [10] = substrate: NCC(O)c1cccc(O)c1; experiment: cells, lysate or membranes; conditions: other: HEK293 cells overexpressing human DAT; racemic substrate, two minutes; net uptake minus empty vector control; 37.0 °C
# [11] = substrate: NC[C@H](O)c1ccc(O)cc1; experiment: cells, lysate or membranes; conditions: other: HEK293 cells overexpressing human DAT; racemic substrate, two minutes; net uptake minus empty vector control; 37.0 °C
# Protocol: as §1, §2, §3, §4, §5
# Chain of NET (P23975 whole entry): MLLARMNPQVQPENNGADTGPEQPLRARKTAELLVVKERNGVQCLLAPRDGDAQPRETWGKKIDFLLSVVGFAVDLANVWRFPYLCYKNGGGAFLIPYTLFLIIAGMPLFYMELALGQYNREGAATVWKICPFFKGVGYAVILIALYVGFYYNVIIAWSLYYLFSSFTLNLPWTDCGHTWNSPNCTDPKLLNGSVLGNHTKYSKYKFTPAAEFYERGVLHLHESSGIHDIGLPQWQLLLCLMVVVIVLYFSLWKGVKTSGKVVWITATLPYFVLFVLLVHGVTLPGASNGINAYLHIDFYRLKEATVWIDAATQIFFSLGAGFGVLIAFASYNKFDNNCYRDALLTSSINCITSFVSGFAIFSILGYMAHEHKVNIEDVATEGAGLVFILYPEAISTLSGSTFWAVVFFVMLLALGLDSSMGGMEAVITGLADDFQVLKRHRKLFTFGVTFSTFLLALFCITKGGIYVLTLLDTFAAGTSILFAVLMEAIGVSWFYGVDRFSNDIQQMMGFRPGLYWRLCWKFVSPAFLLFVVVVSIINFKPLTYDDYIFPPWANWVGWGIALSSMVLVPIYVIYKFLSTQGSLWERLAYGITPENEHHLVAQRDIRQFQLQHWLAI
# T6 sequence (P31645 whole entry): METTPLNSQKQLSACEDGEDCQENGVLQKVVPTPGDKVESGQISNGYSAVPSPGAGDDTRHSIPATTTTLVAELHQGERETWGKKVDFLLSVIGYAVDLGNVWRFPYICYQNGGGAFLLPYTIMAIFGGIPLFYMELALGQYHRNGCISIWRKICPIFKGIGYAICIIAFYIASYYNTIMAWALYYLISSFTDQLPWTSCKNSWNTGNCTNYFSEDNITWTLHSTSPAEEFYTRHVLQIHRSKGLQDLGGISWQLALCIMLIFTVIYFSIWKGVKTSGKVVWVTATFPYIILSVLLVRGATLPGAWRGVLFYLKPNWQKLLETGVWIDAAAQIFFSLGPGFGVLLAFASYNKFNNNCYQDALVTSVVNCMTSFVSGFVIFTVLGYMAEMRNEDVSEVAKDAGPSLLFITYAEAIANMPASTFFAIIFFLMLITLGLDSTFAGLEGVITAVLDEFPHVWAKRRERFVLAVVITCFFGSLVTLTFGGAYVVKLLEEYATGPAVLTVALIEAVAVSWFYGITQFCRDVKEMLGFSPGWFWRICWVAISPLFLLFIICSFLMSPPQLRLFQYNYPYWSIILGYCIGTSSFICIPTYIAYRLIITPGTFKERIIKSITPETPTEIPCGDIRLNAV
molecule,measurement,setting,value
CNC[C@@H](O)c1cccc(O)c1 [(S)-Phenylephrine],Clint ± SEM,SERT [1],11.6
same,Stereoselectivity Km,SERT [2],1.89 fold
same,Stereoselectivity Vmax,SERT [2],1.49 fold
same,Vmax ± SEM,SERT [2],529
same,Km,"SERT [2]; read-out: Km ± SEM, HEK293 cells overexpressing human SERT, racemic substrate, two minutes, net uptake minus empty vector control",173 µM
same,Vmax ± SEM,"NET; HEK293 cells overexpressing human NET, racemic substrate, two minutes, net uptake",220 pmol × mg Protein^−1 × min^−1
same,Clint ± SEM,"NET; NET, quotient of vmax over Km",52.3 mL × g Protein^−1 × min^−1
same,Stereoselectivity Vmax,"NET; NET, ratio between enantiomers, given as for (R) or for 1",1.79 fold
same,selectivity ratio at 2 min,NET; human,1.43
same,Km,"NET; read-out: Km ± SEM, HEK293 cells overexpressing human NET, racemic substrate, two minutes, net uptake minus empty vector control",4.16 µM
same,Clint ± SEM,"OCT1; OCT1, quotient of vmax over Km",8.85 mL × g Protein^−1 × min^−1
same,selectivity ratio at 2 min,OCT1; Stereoselectivity ClInt,1.11
same,selectivity ratio at 2 min,"OCT1; Stereoselectivity Km, OCT1, ratio between enantiomers, given as for (S) or for 2 (second-eluting)",1.02
same,selectivity ratio at 2 min,"OCT1; Stereoselectivity Vmax, OCT1, ratio between enantiomers, given as for (R) or for 1",1.08
same,Clint ± SEM,"DAT; DAT, quotient of vmax over Km",11.6 mL × g Protein^−1 × min^−1
same,Stereoselectivity Vmax,"DAT; DAT, ratio between enantiomers, given as for (R) or for 1",1.56 fold
same,Stereoselectivity Km,"DAT; DAT, ratio between enantiomers, given as for (R) or for 1 (first-eluting)",1.06 fold
same,Vmax ± SEM,"DAT; HEK293 cells overexpressing human DAT, racemic substrate, two minutes, net uptake",392 pmol × mg Protein^−1 × min^−1
same,selectivity ratio at 2 min,DAT; human,1.48
same,Km,"DAT; read-out: Km ± SEM, HEK293 cells overexpressing human DAT, racemic substrate, two minutes, net uptake minus empty vector control",33.7 µM
same,Clint ± SEM,OCT2 [3]; quotient of vmax over Km,27.3 mL × g Protein^−1 × min^−1
same,selectivity ratio at 2 min,"OCT2 [3]; Stereoselectivity ClInt, given as for (S) or for 2",1.02
same,selectivity ratio at 2 min,"OCT2 [3]; Stereoselectivity Km, given as for (R) or for 1 (first-eluting)",1.89
same,selectivity ratio at 2 min,"OCT2 [3]; Stereoselectivity Vmax, given as for (R) or for 1",2.04
same,selectivity ratio,SERT [4],2.82
same,Clint ± SEM,"OCT3; OCT3, quotient of vmax over Km",4.23 mL × g Protein^−1 × min^−1
same,Stereoselectivity Vmax,"OCT3; OCT3, ratio between enantiomers, given as for (R) or for 1",3.33 fold
same,Stereoselectivity Km,"OCT3; OCT3, ratio between enantiomers, given as for (R) or for 1 (first-eluting)",1.19 fold
same,selectivity ratio at 2 min,OCT3; human,2.79
same,"selectivity ratio at 2 min, 100 μM",[5],1.13
CNCC(O)c1ccc(O)cc1 (centres unmarked) [Synephrine],Enantiomeric Activity Ratio (R/S) in Receptor Binding Alpha-1,Alpha-1 adrenoreceptor,75
same,"selectivity ratio at 2 min, 100 μM",OCT2 (wild-type),1.17
same,"selectivity ratio at 2 min, 100 μM",OCT2 A270S variant,1
NC[C@H](O)c1ccc(O)c(O)c1 [Norepinephrine],Enantiomeric Activity Ratio (R/S) in Receptor Binding Alpha-1,Alpha-1 adrenoreceptor,33
same,"selectivity ratio at 2 min, 100 μM",OCT2 (wild-type),2.05
same,Stereoselectivity Vmax,OCT2 [6],approximately two-fold
same,"selectivity ratio at 2 min, 100 μM",OCT2 A270S variant,2.06
DAT (Homo sapiens) (protein) MSKSKCSVGLMSSVVAPAKEPNAVGPKEVELILVKEQNGVQLTSSTLTNPRQSPVEAQDRETWGKKIDFLLSVIGFAVDLANVWRFPYLCYKNGGGAFLVPYLLFMVIAGMPLFYMELALGQFNREGAAGVWKICPILKGVGFTVILISLYVGFFYNVIIAWALHYLFSSFTTELPWIHCNNSWNSPNCSDAHPGDSSGDSSGLNDTFGTTPAAEYFERGVLHLHQSHGIDDLGPPRWQLTACLVLVIVLLYFSLWKGVKTSGKVVWITATMPYVVLTALLLRGVTLPGAIDGIRAYLSVDFYRLCEASVWIDAATQVCFSLGVGFGVLIAFSSYNKFTNNCYRDAIVTTSINSLTSFSSGFVVFSFLGYMAQKHSVPIGDVAKDGPGLIFIIYPEAIATLPLSSAWAVVFFIMLLTLGIDSAMGGMESVITGLIDEFQLLHRHRELFTLFIVLATFLLSLFCVTNGGIYVFTLLDHFAAGTSILFGVLIEAIGVAWFYGVGQFSDDIQQMTGQRPSLYWRLCWKLVSPCFLLFVVVVSIVTFRPPHYGAYIFPDWANALGWVIATSSMAMVPIYAAYKFCSLPGSFREKLAYAIAPEKDRELVDRGEVRQFTLRHWLKV,Km,[7],44.7 µM
same,Vmax,[7],463 pmol × mg Protein^−1 × min^−1
same,Km,[8],36.8 µM
same,Vmax,[8],849 pmol × mg Protein^−1 × min^−1
same,Km,[9],19.6 µM
same,Vmax,[9],1959 pmol × mg Protein^−1 × min^−1
same,Km,[10],15.6 µM and 18.6 µM
same,Vmax,[10],2003 pmol × mg Protein^−1 × min^−1 and 3103 pmol × mg Protein^−1 × min^−1
same,Km,[11],20.5 µM
same,Vmax,[11],2054 pmol × mg Protein^−1 × min^−1
